The values that follow come from patent publication US12486284B2, “Ubiquitin-specific protease inhibitor and preparation method therefor and use thereof” (CHASER THERAPEUTICS, INC., priority 2019, dated 2025).

The target of one experiment is T1, USP25 (Homo sapiens, UniProt Q9UHP3).
T1 construct: purchased R&D Systems
T1 sequence (Q9UHP3 1-1055): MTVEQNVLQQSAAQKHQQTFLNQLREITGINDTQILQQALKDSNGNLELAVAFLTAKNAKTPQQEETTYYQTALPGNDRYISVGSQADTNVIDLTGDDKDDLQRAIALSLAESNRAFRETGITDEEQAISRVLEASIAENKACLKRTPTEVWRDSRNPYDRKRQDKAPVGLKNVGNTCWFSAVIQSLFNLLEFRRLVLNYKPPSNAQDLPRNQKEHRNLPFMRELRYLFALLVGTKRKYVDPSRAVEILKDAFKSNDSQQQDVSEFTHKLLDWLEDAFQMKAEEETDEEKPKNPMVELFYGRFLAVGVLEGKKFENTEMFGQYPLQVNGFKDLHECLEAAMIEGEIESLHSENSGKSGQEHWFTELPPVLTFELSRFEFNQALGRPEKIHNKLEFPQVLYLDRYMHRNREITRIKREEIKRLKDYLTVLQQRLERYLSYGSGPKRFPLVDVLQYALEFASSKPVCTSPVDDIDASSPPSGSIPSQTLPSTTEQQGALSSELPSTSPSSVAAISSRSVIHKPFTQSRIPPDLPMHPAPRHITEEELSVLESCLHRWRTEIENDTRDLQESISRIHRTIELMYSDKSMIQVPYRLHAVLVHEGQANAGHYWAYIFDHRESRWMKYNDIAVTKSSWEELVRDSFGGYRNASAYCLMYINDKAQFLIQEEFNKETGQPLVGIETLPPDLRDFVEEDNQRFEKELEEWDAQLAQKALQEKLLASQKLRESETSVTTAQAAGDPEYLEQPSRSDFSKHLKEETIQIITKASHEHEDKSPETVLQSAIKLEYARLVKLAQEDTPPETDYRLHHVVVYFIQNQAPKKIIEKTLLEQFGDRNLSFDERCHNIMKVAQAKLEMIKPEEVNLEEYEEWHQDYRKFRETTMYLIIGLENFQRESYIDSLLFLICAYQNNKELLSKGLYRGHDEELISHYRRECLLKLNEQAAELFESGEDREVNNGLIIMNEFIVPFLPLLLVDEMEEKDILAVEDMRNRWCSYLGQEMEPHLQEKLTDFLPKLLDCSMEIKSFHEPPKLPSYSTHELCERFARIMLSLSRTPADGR
Put plainly: USP25 activity measured using ubiquitin-rhodamine 110 method. In kind it is biochemical. The conditions noted are these: for IC50: purified USP25 15 nM, ubiquitin-rhodamine 110 125 nM, 30 min preincubation; for IC50(F)/IC50(E) USP25: ratio of IC50 of related 3-NH2 compound (F) to IC50 of 3-NHMe compound disclosed herein (E). The protocol:
USP25 activity was measured using ubiquitin-rhodamine 110 method.
(§1) Purified USP25 and the ubiquitin-rhodamine 110 substrate used for measuring DUBs activity were both from R&D Systems. Test compounds were first dissolved in DMSO to prepare a 10 mM stock solution, and then the stock solution was diluted with a buffer solution [containing 20 mM Tris-HCl (pH 8.0), 2 mM CaCl2), 3 mM BME, 0.01% Prionix, 0.01% Triton X-100] to the desired concentration (with DMSO content less than or equal to 0.5%). The dilution was mixed well with USP25 (final concentration 15 nM) in a 96-well plate and incubated at room temperature for 30 min, and then added with the substrate (ubiquitin-rhodamine 110) to 125 nM. The final volume of the whole reaction system was 20 μL. The released fluorescence (excitation wavelength 485 nm, emission wavelength 535 nm) was detected immediately on a microplate reader after the addition of the substrate, and the inhibitory rate of the test compound against USP25 was calculated according to the following formula: Inhibition %=1−[(test compound+fluorescence value of substrate−fluorescence value of test compound (no substrate))/mean fluorescence value of DMSO control group−fluorescence value of test compound (no substrate)]
As in Example 11, according to the inhibitory rates of the test compound against USP25 under different concentrations, IC50 was calculated.

Another experiment addresses T2, USP28 (Homo sapiens, UniProt Q96RU2).
T2 construct: purchased R&D Systems
T2 sequence (Q96RU2 1-1077): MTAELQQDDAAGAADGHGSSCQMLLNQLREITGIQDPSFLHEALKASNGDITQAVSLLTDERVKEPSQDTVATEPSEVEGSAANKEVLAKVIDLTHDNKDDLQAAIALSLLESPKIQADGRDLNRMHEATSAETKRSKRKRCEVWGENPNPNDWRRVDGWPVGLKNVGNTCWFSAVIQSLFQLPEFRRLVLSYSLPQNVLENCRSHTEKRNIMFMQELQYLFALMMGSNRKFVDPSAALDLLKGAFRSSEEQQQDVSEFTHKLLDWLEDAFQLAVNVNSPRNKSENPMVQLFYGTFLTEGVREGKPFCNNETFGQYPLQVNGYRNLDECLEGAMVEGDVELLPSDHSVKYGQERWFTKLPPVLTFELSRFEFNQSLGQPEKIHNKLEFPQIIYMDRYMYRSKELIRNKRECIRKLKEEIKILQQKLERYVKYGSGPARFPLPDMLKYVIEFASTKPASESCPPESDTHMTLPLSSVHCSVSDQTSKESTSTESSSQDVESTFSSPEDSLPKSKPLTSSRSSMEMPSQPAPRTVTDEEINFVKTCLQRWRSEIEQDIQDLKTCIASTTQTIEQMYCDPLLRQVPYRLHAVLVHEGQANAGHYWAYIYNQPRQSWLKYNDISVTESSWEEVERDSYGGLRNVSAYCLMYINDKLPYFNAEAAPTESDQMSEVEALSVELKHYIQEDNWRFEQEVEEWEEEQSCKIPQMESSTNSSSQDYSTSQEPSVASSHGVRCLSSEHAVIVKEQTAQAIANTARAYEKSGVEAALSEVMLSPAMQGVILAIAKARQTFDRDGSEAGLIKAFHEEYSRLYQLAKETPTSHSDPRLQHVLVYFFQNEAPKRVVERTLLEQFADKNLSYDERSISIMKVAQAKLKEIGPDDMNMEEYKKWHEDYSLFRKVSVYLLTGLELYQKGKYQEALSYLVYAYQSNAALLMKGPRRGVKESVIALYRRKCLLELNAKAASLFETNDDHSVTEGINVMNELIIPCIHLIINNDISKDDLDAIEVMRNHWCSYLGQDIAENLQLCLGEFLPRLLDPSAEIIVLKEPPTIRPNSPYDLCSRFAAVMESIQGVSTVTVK
As to the kind of experiment: USP28 activity measured using ubiquitin-rhodamine 110 method. The format is biochemical. The note with it: for IC50: purified USP28 4 nM, ubiquitin-rhodamine 110 125 nM, 30 min preincubation; for IC50(F)/IC50(E) USP28: ratio of IC50 of related 3-NH2 compound (F) to IC50 of 3-NHMe compound disclosed herein (E). The procedure: USP28 activity was measured using ubiquitin-rhodamine 110 method.
as §1, with “USP28” for “USP25”, “4” for “15”, “substrate. The” for “substrate, and the”
According to the inhibitory rates of the test compound against USP28 under different concentrations, IC50 was calculated.

[1] abbreviates: read-out: Inhibitory activity against USP25 (IC50).
The mark [2] stands for this setting: read-out: Inhibitory activity against USP28 (IC50).
[3] abbreviates: Inhibitory activity against USP28 (IC50).
Setting [4] is: Inhibitory activity against USP25 (IC50).

Like-named read-outs stand apart in the source and are kept apart here.

The term IC50 denotes the concentration needed to halve the response being measured. Regarding `CNc1c(C(=O)N[C@H]2Cc3ccc(N4CC5CCC(C4)N5)cc3C2)sc2nc(C)ccc12` [Compound I-84], the results for the IC50 at USP25 (setting [1]) and at USP28 (setting [2]) were over 10000 nM and 1000 to 5000 nM, respectively.

Consider `CNc1c(C(=O)NC2COc3cc(N4CC5CCC(C4)N5)ccc3C2)sc2nc(C)cnc12` (single isomer, unassigned) [Compound I-88], for which the half-inhibitory concentration (IC50) at USP25 (setting [1]) and at USP28 (setting [2]) was 1000 to 5000 nM throughout.

`CCc1nc2sc(C(=O)NCCc3ccc(N4C[C@H]5CC[C@@H](C4)N5)cc3)c(NC)c2c(C(F)(F)F)c1C` [Compound I-32]: the IC50 at USP25 (setting [1]) is 5000 to 10000 nM; against USP28 (setting [3]) it was under 100 nM.

For the compound `CNc1c(C(=O)NCCc2cc(F)c(N3C[C@H]4CC[C@@H](C3)N4)cc2F)sc2nc(C)ccc12` [Compound I-42], the concentration for half-maximal inhibition (IC50) on USP25 (setting [1]) is over 10000 nM; against USP28 (setting [3]), under 100 nM.

Turning to `CNc1c(C(=O)NCCc2ccc(N3C[C@H]4CC[C@@H](C3)N4)cc2F)sc2nc(C)ccc12` [Compound I-39], the concentration for half-maximal inhibition (IC50) on USP25 (setting [1]) and at USP28 (setting [2]) was 100 to 1000 nM each time.

Turning to `CNc1c(C(=O)NC2CCc3cc(N4CC5CCC(C4)N5)ccc3C2)sc2nc(C)ccc12` (stereo not shown) [Compound I-89], the IC50 on USP25 (setting [1]) lay in the range of 5000 to 10000 nM; on USP28 (setting [2]) it was 1000 to 5000 nM.

As to `CNc1c(C(=O)NCCc2c[nH]c3ccccc23)sc2ncccc12` [Compound I-48], the IC50 at USP25 (setting [1]) is 5000 to 10000 nM; on USP28 (setting [2]), under 100 nM.

For the compound `CNc1c(C(=O)NCCc2ccc(N3C[C@H]4CC[C@@H](C3)N4)cc2)sc2nc(C)cc(C(F)(F)F)c12` [Compound I-27], the IC50 against USP25 (setting [4]) and against USP28 (setting [3]) was under 100 nM throughout.

Turning to `CNc1c(C(=O)NCCc2c[nH]c3ccccc23)sc2nc(C)ccc12` [Compound I-49], the IC50 was 1000 to 5000 nM at USP25 (setting [1]) and under 100 nM at USP28 (setting [2]). Also, at USP25, the “IC50(F)/IC50(E) USP25” value was over 7. Further, at USP28, the “IC50(F)/IC50(E) USP28” value was 5.0.

For `CCc1ccc2c(NC)c(C(=O)NCCc3ccc(N4C[C@H]5CC[C@@H](C4)N5)cc3)sc2n1` [Compound I-10], the figures for the IC50 on USP25 (setting [1]) and at USP28 (setting [3]) were 1000 to 5000 nM and under 100 nM, respectively.

With `CCc1ccc2c(NC)c(C(=O)NCCc3c[nH]c4ccccc34)sc2n1` [Compound I-50], the results for the IC50 at USP25 (setting [1]) and at USP28 (setting [2]) were 1000 to 5000 nM and under 100 nM, respectively.

On to `CNc1c(C(=O)NCCc2ccc(N3C[C@H]4CC[C@@H](C3)N4)c(C)c2)sc2nc(C)ccc12` [Compound I-33], for which the half-maximal inhibitory concentration (IC50) was 5000 to 10000 nM at USP25 (setting [1]) and under 100 nM on USP28 (setting [3]).

As to `CNc1c(C(=O)NCCc2c[nH]c3ccccc23)sc2nc(C(F)(F)F)ccc12` [Compound I-54], the IC50 was 5000 to 10000 nM on USP25 (setting [1]) and under 100 nM on USP28 (setting [2]).

`CNc1c(C(=O)N[C@H](COC)Cc2c[nH]c3ccccc23)sc2nc(C)ccc12` [Compound I-55]: the half-maximal inhibitory concentration (IC50) was over 10000 nM on USP25 (setting [1]) and 1000 to 5000 nM at USP28 (setting [2]).

Regarding `CNc1c(C(=O)NCCc2ccc(N3C[C@H]4CC[C@@H](C3)N4)c(C#N)c2)sc2nc(C)ccc12` [Compound I-37], the IC50 on USP25 (setting [4]) and against USP28 (setting [3]) was under 100 nM throughout.

Turning to `CNc1c(C(=O)NCCc2ccc(N3C[C@H]4CC[C@@H](C3)N4)cc2)sc2nccnc12` [Compound I-70], the IC50 at USP25 (setting [1]) is over 10000 nM; on USP28 (setting [2]) it was 1000 to 5000 nM.

In the case of `CNc1c(C(=O)NCCc2ccc(OC)c(OC)c2)sc2nc(C)ccc12` [Compound I-58], the results for the half-maximal inhibitory concentration (IC50) on USP25 (setting [1]) and at USP28 (setting [2]) were over 10000 nM and 100 to 1000 nM, respectively. For the same compound, the “IC50(F)/IC50(E) USP25” value on USP25 is given as over 8. In addition, the “IC50(F)/IC50(E) USP28” value at USP28 worked out at 5.0.

Consider `CNc1c(C(=O)N[C@@H](Cc2ccc(N3C[C@H]4CC[C@@H](C3)N4)cc2)C(F)(F)F)sc2nc(C)ccc12` [Compound I-66], for which the half-inhibitory concentration (IC50) at USP25 (setting [1]) and at USP28 (setting [2]) was 100 to 1000 nM each time.

For `CNc1c(C(=O)NCCc2ccc(N3C[C@H]4CC[C@@H](C3)N4)cc2F)sc2nc(C)cnc12` [Compound I-77], the IC50 against USP25 (setting [4]) and against USP28 (setting [3]) was under 100 nM in each case.

As for `CNc1c(C(=O)NCCc2ccc(C3CCNCC3)cc2)sc2nc(C)ccc12` [Compound I-3], the IC50 at USP25 (setting [1]) is 100 to 1000 nM; at USP28 (setting [2]) it was under 100 nM.

As to `CNc1c(C(=O)NCCc2ccc(N3C[C@H]4CC[C@@H](C3)N4)c(F)c2)sc2nc(C)cnc12` [Compound I-76], the IC50 against USP25 (setting [4]) and on USP28 (setting [3]) was under 100 nM in each case. Further, the “IC50(F)/IC50(E) USP25” value on USP25 was over 20. Further, the “IC50(F)/IC50(E) USP28” value at USP28 is listed as 33.3.

Regarding `CNc1c(C(=O)NCCc2ccc(N3C[C@H]4CC[C@@H](C3)N4)cc2)sc2nccc(C)c12` [Compound I-20], the half-maximal inhibitory concentration (IC50) on USP25 (setting [1]) and at USP28 (setting [2]) was 100 to 1000 nM in each case.

Take `CNc1c(C(=O)NCCc2ccc(N3C[C@H]4CC[C@@H](C3)N4)cc2)sc2nc(C(F)F)cc(C)c12` [Compound I-28]: the 50% inhibitory concentration (IC50) on USP25 (setting [4]) and on USP28 (setting [3]) was under 100 nM in each case.
